Reference: patent publication US20210161929A1, “USES OF VERBASCOSIDE IN TREATMENT OF DIABETIC-ASSOCIATED KDINEY INJURY AND DIABETIC-ASSOCIATED LIVER INJURY” (NANJING UNIVERSITY OF CHINESE MEDICINE, priority 2018, published 2021)

Key:
[1] = test system: NOX1, NOX2, NOX4, α-SMA, E-cadherin, NF-κB p65, TGF-β1, Smad2, Smad3, Smad4 and Smad7 in HK-2 cells; test: Protein expression in high-glucose induced HK-2 cells (Western blotting); format: cell-based, human; details: for effect on the formation of EMT: in vitro studies, HK-2, discussion
Experimental: The expression quantity of related proteins and mRNA in each cell is detected using Western blotting method and Real-time PCR, and the secretion of related factors in cell supernatant is detected using ELISA. […] Human renal tubular epithelial cells (HK-2) were provided by Nanjing KeyGEN Biotechnology Development Co., Ltd. The complete medium was a low-sugar DMEM with 10% FBS and 1% penicillin-streptomycin solution. The cells were cultured at 37° C. under 5% CO2 and saturated humidity in an incubator. Cells were spread in a 96-well plate and cultured with a 5 mmol/Llow-sugar DMEM for 24 hours. […] The number of cells in each group was detected using a cell counting method after 48 hours of the incubation.

[2] = test system: HK-2 cells; test: Proliferation of high-glucose induced HK-2 cells; format: cell-based, human; details: for effect on the proliferation of HK-2: in vitro studies, discussion; for OD / inhibition ratio %: 48 hours
Experimental: (§1) Human renal tubular epithelial cells (HK-2) were provided by Nanjing KeyGEN Biotechnology Development Co., Ltd. The complete medium was a low-sugar DMEM with 10% FBS and 1% penicillin-streptomycin solution. The cells were cultured at 37° C. under 5% CO2 and saturated humidity in an incubator. Cells were spread in a 96-well plate and cultured with a 5 mmol/Llow-sugar DMEM for 24 hours. […] The number of cells in each group was detected using a cell counting method after 48 hours of the incubation.

[3] = test system: HK-2 cells; test: Morphology of high-glucose induced HK-2 cells; format: cell-based, human; details: 50 μmol/L, 48 hours
[4] = test system: db/db mice serum; test: Serum metabonomics (UPLC-QTOF/MS, PLS-DA) of db/db mice; format: in vivo; details: mouse serum, mean ± SD, n = 6; for Relative distance between administration group and control group in PLS-DA score plot, ESI −: negative ion mode, model group 43.46 ± 3.15; for Relative distance between administration group and control group in PLS-DA score plot, ESI +: positive ion mode, model group 36.62 ± 3.28
Experimental: After 6 weeks of administration, each of the mice was subjected to blood collection by removing eyeballs. The blood sample was centrifuged at 4° C. and 3000 rpm for 10 minutes to obtain a serum. 100 μL of the frozen-thawed serum was mixed uniformly with 300 μL of acetonitrile under vortex for 2 minutes to produce a mixture. The mixture was centrifuged at 4° C. and 13000 rpm for 10 minutes, and the protein precipitate was removed while the supernatant was collected for determination.
Chromatographic conditions: ACQUITY™UPLC BEH C18 column (2.1 mm×100 mm, 1.7 μm); and mobile phase: 0.1% formic acid aqueous solution (A)−acetonitrile (B). The gradient elution of serum was programmed as follows: 0-3 minutes, 95%-55% A; […], 55%-5% A; 13-14 minutes, 5% A. The injection volume was 2 μL and a column temperature of 35° C. was employed.
Mass spectrometry conditions: ESI ion source (ESI^+/ESI^−); mass scanning range: 100-1000 m/z; a capillary voltage of 3.0 kV and a cone voltage of 30 V; an extraction voltage of 2.0 V; ion source temperature and desolvation temperature: respectively 120° C. and 350° C.; cone gas flow rate: 50 L/h; collision energy: 20-50 eV; desolvation gas flow rate: 600 L/h; activation time: 30 ms; and collision gas: high-purity nitrogen. Leucine-enkephalin (ESI^−: 555.2615 m/z, ESI^+: 556.2771 m/z) solution of 200 pg/mL was used as a mass-locking solution at a flow rate of 100 μL/min.
The obtained original mass spectrometry data was processed using Masslynx v4.1 software. The main parameters included: retention time range: 0-14 minutes; m/z range: 100-1000; mass tolerance range: 0.01 Da; peak intensity threshold: 50; mass window: 0.05 Da; retention time window: 0.2 minutes; and automatic detection of 5% peak height and noise. The intensity of each ion was normalized relative to the total ion count to produce a data list consisting of retention time, m/z value and standardized peak area. The data were imported into EZinfo 2.0 for supervised partial least squares discriminant analysis (PLS-DA) and orthogonal partial least squares discriminant analysis (OPLS-DA). The separation of various metabolites between the control group and the model group was shown in the OPLS-DA plot. Potential biomarkers were extracted from the S-plot constructed after OPLS-DA analysis, and each point in the S-plot represented the information of the corresponding variable. The variable importance in the projection (VIP) was measured by the magnitude of the VIP value. The variables were screened according to the VIP value, and the variable with VIP>1 may be selected as a potential biomarker and the molecular formula of the variable of significant difference between the model group and the control group was further identified. Cross validation parameters R^2Y and Q^2were used to describe the PLS-DA score plot, which represented the total explanatory variables of the […] and the predictability of the model, respectively. When a cumulative value of R^2Y and Q^2 was greater than 0.8, the model may be considered to be reliable. The relative distances between other groups and the control group in the PLS-DA score plot were calculated using the average values of all samples (X and Y axes) of the control group as reference points. This quantitative value can be used as an evaluation index of pharmacodynamics and metabonomics to solve many problems in lacking of accurate and quantitative evaluation methods for pharmacodynamics. SPSS 21.0 software was used for statistical analysis of the relevant data. T-test analysis was performed among groups to verify the significance of the difference of potential biomarkers in different groups. The data were expressed as mean±SD, and the data were considered to have a statistical significance with P<0.05. […]

[5] = test system: kidneys of db/db mice; test: Pathological sections of kidney (HE, PAS) of db/db mice; format: in vivo; details: 6 weeks, irbesartan 50, verbascoside 70.8 mg·kg^−1·d^−1
[6] = test system: db/db mice; test: Biochemical indexes of db/db mice after 6 weeks of intragastric administration; format: in vivo; details: ig once a day for 6 weeks, metformin 250, irbesartan 50, verbascoside 70.8 mg·kg^−1·d^−1
Experimental: 32 male db/db mice and 10 male db/m mice of SPF grade, aged 6-8 weeks and weighing 25-40 g, were purchased from Nanjing Biomedical Research Institute of Nanjing University with an animal license number of SCXK (Su 2015-0001).The mice were raised in an animal room under alternating light and dark every 12 hours with constant temperature of 22±2° C. and humidity of 55±10%.
All mice were adaptively fed for 3 weeks, and db/m mice were used as a control group with a total number of 10. Db/db mice were randomly divided into four groups according to blood sugar and body weight each of 8 mice, and the four groups respectively were a model group (M), a metformin group (EJSG, 250 mg·kg^−1·d^−1), an irbesartan group (EBST, 50 mg·kg^−1·d^−1) and a verbascoside group (MRHTG, 70.8 mg·kg^−1·d^−1). The same amount of saline was intragastrically administered(ig) to the mice in the control group and the model group, and the volume of intragastric administration (ig) was 10 mL·kg^−1, and such administration was performed once a day for continuous 6 weeks.
One day before the end of the experiment, urine was collected in a metabolic cage for 12 hours and the urine volume was recorded. Microalbuminuria content was measured and fasting blood glucose (FBG) of mice in each group was measured by tail vein blood sampling. After drug intervention, mice were anesthetized with intraperitoneal injection of 10% chloral hydrate, and blood was collected from eyeballs. The blood was centrifuged at 3000 rpm and 4° C. for 10 minutes to obtain a serum. The serum was then subjected to determination of serum creatinine, blood urea nitrogen, blood insulin, cholesterol, triglyceride, glutamic-pyruvic transaminase and glutamic-oxalacetic transaminase contents.

[7] = test system: NOX1, NOX2, NOX4, α-SMA, E-cadherin, NF-κB p65, TGF-β1, Smad2, Smad3, Smad4 and Smad7 in HK-2 cells; test: mRNA expression in high-glucose induced HK-2 cells (Real-time PCR); format: cell-based, human; details: 50 μmol/L, HK-2 cells with high glucose-induced injuries
Source text: (§2) In the present invention, human renal tubular epithelial (HK-2) cells are selected to establish a high sugar-induced HK-2 cell injury model, and TLR capsules, TLR extract and its major active components verbascoside and catalpol are used for intervention. The expression quantity of related proteins and mRNA in each cell is detected using Western blotting method and Real-time PCR, and the secretion of related factors in cell supernatant is detected using ELISA. In addition, the effect of TLR on regulating oxidative stress reactions of HK-2 cells and TGF-β/smad signal pathway is further explored.
as §1

[8] = test system: nephrotoxic nephritis rats model; details: cited from earlier work
[9] = test system: MCP-1, IL-1β, TNF-α and IL-6 in supernatant of HK-2 cells; test: Secretion of inflammatory factors in supernatant of HK-2 cells (ELISA); format: cell-based, human; details: 50 μmol/L, HK-2 cells with high glucose-induced injuries
Source text: as §2, §1

[10] = rats; cited from earlier work
[11] = 50 μmol·L^−1, high glucose 30 mmol/L
[12] = 10 μmol·L^−1, high glucose 30 mmol/L
[13] = 25 μmol·L^−1, high glucose 30 mmol/L
[14] = 100 μmol·L^−1, high glucose 30 mmol/L

Row | SMILES | effect on the formation of EMT [1] | effect on the proliferation of HK-2 [2] | OD [2, 11] | inhibition ratio % [2, 11] [%] | cell morphologies [3] | Relative distance between administration group and control group in PLS-DA score plot, ESI − [4] | Relative distance between administration group and control group in PLS-DA score plot, ESI + [4] | results of histological examination of kidney (HE, PAS mean OD) [5] | contents of FBG, T-CHO, TG, GOT, GPT, INS, BUN, mALB and Scr [6] | further results
1 | OC[C@H]1O[C@@H](O[C@@H]2OC=C[C@H]3[C@H](O)[C@@H]4O[C@]4(CO)[C@@H]23)[C@H](O)[C@@H](O)[C@@H]1O [catalpol, reference compound] | had an effect on inhibiting | had an effect on inhibiting | – | – | – | – | – | – | – | –
2 | CCCCC1=NC2(CCCC2)C(=O)N1Cc1ccc(-c2ccccc2-c2nnn[nH]2)cc1 [irbesartan, reference compound] | – | – | 0.576 ± 0.02 | 80.57 | close to those of the control group | 32.16 ± 10 | 21.56 ± 8.01 | close to those of the control group | tended to be normal | –
3 | CN(C)C(=N)N=C(N)N [metformin] | – | – | – | – | – | 34.94 ± 2.74 | 36.57 ± 1.53 | – | tended to be normal | –
4 | C[C@@H]1O[C@@H](O[C@@H]2[C@@H](O)[C@H](OCCc3ccc(O)c(O)c3)O[C@H](CO)[C@H]2OC(=O)/C=C/c2ccc(O)c(O)c2)[C@H](O)[C@H](O)[C@H]1O [verbascoside] | had an effect on inhibiting | had an effect on inhibiting | 0.557 ± 0.012 | 73.95 | close to those of the control group | 28.59 ± 3.33 | 31.62 ± 1.07 | close to those of the control group | tended to be normal | mRNA expressions of NOX1, NOX2, NOX4, α-SMA, E-cadherin, NF-κB p65, TGF-β1, Smad2, Smad3, Smad4 and Smad7 [7]: all returned to normal; protein expressions of NOX1, NOX2, NOX4, α-SMA, E-cadherin, NF-κB p65, TGF-β1, Smad2, Smad3, Smad4 and Smad7 ([1]; 50 μmol/L, HK-2 cells with high-glucose induced injuries): all returned to normal; inhibition ratio % ([2]; 5 μmol·L^−1, high glucose 30 mmol/L): 25.52%; OD ([2]; 5 μmol·L^−1, high glucose 30 mmol/L, control 0.632, model 0.345): 0.418 ± 0.008; OD [2, 12]: 0.457 ± 0.014; inhibition ratio % [2, 12]: 39.02%; OD [2, 13]: 0.501 ± 0.015; inhibition ratio % [2, 13]: 54.36%; OD [2, 14]: 0.559 ± 0.01; inhibition ratio % [2, 14]: 74.65%; proliferation of HK-2 cells under a high glucose condition ([2]; 5, 10, 25, 50, 100 μmol/L): could promote the proliferation of HK-2 cells under a high glucose condition, and the promotion of the proliferation was dose-dependent; adverse effects [8]: without causing obvious adverse effects; renal function injury [8]: capable of improving; expression levels of MCP-1, IL-1β, TNF-α and IL-6 in the supernatant [9]: returned to normal; oral bioavailability [10]: low
